Like-named read-outs stand apart in the source and are kept apart here.

In one test the target is Human mTOR (FLAG-TOR) (Homo sapiens, UniProt P42345). The test can be described thus: mTOR kinase assay (DELFIA format, purified enzyme). Format: biochemical. To be noted: read-out: IC50 mTOR.
For test [1], the system named is human prostate PC3-mm2 tumor cell line. The test can be described thus: In vitro cell culture growth assay (MTS), PC3-mm2. Format: cell-based. To be noted: Homo sapiens, PC3MM2, 72 h, MTS cell growth assay, three days after drug treatment, PC3-mm2 cells; read-out: IC50 PC3-mm2. In general terms: Formazan colour is commonly taken as a measure of viable cells.
Another test concerns the target PI3K-γ (Homo sapiens, UniProt P48736). Briefly: PI3K-gamma fluorescence polarization assay. To be noted: read-out: IC50 PI3Kγ. (Polarisation of emitted light reports the rotation of a fluorescent probe.)
In test [2] the test system is human breast MDA-MB-361 tumor cell line. The test can be described thus: In vitro cell culture growth assay (MTS), MDA-MB-361. To be noted: Homo sapiens, MTS cell growth assay, three days after drug treatment, MDA-MB-361 cells, read-out: IC50 MDA-MB-361. Format: cell-based.
Another test addresses PI3K-α (Homo sapiens, UniProt P42336). The test can be described thus: PI3K-alpha fluorescence polarization assay. The following applies: read-out: IC50 PI3Kα.

Sequence of PI3K-α (P42336 whole entry, species assumed): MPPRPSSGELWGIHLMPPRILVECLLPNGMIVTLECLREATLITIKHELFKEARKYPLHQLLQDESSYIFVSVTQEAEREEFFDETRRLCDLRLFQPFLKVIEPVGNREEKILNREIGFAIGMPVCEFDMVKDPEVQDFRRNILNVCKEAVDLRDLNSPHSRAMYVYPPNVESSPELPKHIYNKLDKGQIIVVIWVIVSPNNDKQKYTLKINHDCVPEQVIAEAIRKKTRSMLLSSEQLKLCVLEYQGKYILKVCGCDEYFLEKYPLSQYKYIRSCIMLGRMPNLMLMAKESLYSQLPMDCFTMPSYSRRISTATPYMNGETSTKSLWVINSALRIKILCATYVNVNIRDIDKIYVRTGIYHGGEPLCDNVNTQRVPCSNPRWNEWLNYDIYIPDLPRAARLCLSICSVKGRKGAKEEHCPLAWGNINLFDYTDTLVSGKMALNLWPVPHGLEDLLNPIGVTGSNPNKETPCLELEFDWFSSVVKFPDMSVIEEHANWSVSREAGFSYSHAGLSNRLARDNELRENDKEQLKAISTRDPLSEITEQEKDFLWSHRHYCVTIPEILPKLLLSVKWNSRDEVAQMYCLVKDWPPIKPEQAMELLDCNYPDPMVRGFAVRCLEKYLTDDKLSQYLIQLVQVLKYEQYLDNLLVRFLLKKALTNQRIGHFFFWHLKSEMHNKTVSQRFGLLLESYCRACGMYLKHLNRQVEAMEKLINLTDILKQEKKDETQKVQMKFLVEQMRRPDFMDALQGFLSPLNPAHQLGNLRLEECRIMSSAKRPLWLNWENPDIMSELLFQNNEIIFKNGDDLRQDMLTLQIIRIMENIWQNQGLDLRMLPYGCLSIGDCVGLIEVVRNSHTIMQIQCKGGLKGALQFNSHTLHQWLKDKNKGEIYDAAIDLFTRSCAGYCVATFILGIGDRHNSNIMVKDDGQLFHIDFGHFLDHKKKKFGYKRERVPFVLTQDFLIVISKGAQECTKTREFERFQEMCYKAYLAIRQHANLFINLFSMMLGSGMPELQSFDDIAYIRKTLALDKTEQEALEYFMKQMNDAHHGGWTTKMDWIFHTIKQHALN
Sequence of PI3K-α (P27986 whole entry partner, species assumed): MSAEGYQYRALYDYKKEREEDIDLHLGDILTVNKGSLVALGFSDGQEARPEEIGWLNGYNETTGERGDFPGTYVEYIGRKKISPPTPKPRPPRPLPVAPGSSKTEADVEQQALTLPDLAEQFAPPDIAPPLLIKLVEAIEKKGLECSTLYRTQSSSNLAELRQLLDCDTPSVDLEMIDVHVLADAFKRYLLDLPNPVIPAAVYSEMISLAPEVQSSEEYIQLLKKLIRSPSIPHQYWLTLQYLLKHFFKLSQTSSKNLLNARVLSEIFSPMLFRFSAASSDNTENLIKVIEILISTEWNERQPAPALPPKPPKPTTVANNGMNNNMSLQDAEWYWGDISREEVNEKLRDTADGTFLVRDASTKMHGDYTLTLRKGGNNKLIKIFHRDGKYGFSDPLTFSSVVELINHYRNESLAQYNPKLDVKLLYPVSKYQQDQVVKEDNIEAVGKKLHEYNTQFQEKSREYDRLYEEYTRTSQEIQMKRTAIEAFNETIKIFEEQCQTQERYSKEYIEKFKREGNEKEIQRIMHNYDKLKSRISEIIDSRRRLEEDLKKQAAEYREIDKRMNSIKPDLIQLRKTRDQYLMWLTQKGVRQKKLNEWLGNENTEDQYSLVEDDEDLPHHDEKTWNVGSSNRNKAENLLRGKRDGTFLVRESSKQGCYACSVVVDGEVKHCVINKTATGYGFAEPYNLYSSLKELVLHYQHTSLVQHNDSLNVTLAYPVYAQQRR
Sequence of Human mTOR (FLAG-TOR) (P42345 1360-2549 limits assumed): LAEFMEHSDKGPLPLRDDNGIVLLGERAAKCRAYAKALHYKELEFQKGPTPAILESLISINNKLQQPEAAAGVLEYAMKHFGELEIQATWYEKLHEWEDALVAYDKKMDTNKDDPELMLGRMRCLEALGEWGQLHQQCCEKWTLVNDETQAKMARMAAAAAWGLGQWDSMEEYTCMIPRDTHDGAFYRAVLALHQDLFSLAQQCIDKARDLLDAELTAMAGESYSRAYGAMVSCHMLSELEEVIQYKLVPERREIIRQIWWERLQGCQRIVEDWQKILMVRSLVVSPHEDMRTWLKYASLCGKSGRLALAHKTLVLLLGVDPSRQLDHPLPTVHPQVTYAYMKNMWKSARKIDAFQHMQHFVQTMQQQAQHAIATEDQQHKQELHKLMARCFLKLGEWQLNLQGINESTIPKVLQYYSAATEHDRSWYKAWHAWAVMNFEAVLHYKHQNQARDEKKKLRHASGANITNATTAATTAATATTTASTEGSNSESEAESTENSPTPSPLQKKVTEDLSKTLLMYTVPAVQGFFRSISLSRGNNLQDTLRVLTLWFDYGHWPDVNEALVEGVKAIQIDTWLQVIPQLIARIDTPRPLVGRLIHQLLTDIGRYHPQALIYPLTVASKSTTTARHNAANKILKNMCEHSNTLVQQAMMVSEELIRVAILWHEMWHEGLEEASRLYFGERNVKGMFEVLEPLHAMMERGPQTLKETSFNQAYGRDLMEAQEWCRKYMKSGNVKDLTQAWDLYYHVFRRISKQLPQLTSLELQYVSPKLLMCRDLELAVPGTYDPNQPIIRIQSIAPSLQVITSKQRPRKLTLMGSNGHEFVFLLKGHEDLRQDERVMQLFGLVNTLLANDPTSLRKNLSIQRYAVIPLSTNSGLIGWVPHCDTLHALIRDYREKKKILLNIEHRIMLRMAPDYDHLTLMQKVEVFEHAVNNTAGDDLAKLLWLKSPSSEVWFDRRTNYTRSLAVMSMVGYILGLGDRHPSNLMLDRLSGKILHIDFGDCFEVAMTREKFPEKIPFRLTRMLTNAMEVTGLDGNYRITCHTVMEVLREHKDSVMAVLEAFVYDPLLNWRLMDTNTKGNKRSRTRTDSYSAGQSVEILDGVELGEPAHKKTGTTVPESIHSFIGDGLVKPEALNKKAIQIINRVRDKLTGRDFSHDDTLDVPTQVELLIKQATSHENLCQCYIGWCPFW
Sequence of PI3K-γ (P48736 whole entry, species assumed): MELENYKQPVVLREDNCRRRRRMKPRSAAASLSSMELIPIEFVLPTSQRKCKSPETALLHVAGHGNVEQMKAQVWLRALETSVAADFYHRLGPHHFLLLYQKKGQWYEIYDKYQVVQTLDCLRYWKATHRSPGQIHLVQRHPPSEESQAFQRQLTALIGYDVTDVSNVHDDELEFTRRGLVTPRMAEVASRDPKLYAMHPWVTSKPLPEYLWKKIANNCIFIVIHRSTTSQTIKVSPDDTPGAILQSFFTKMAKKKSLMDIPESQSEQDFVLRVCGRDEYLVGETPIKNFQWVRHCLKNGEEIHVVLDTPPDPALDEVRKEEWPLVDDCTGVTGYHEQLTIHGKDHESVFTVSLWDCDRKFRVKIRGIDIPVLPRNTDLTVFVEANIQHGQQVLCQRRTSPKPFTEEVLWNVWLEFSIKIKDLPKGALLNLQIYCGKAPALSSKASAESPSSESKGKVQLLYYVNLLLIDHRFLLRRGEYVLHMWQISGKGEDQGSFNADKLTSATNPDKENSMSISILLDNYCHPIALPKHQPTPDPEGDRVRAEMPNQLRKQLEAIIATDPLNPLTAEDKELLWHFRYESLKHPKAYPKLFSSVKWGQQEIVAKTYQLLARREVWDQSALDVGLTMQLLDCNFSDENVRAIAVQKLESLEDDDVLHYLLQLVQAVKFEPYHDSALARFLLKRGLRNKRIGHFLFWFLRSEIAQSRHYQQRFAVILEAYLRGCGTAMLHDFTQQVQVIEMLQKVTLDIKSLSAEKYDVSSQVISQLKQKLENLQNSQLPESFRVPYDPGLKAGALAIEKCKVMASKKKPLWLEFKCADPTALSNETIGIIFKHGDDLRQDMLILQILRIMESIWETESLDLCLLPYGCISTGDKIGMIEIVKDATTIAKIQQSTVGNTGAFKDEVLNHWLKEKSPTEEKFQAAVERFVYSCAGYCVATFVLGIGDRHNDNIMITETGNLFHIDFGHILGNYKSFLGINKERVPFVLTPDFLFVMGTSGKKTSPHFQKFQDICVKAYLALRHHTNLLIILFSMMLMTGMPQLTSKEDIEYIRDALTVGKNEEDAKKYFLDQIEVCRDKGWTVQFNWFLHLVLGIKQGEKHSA

As to `O=C(Nc1ccc(C(=O)N2CCNCC2)cc1)Nc1ccc(-c2nc(N3CCOCC3)nc(N3C4CCC3COC4)n2)cc1` [Example 756, 1-{4-[4-morpholin-4-yl-6-(3-oxa-8-azabicyclo[3.2.1]oct-8-yl)-1,3,5-triazin-2-yl]phenyl}-3-[4-(piperazin-1-ylcarbonyl)phenyl]urea], the IC50 is 0.2 nM at Human mTOR (FLAG-TOR); 12 nM in test [1]; 7 nM on PI3K-γ; less than 3 nM in test [2] (MDA-MB-361, 72 h); 0.5 nM at PI3K-α.
For `O=C(Nc1ccc(C(=O)N2CCC(N3CCOCC3)CC2)cc1)Nc1ccc(-c2nc(N3CCOCC3)nc(N3C4CCC3COC4)n2)cc1` [Example 757, 1-{4-[4-morpholin-4-yl-6-(3-oxa-8-azabicyclo[3.2.1]oct-8-yl)-1,3,5-triazin-2-yl]phenyl}-3-{4-[(4-morpholin-4-ylpiperidin-1-yl)carbonyl]phenyl}urea], the IC50 at Human mTOR (FLAG-TOR) was 0.28 nM; in test [1] it was 6 nM; at PI3K-γ, 37.5 nM; in test [2] (MDA-MB-361, 72 h), less than 3 nM; at PI3K-α, 5.5 nM.
With `O=C(Nc1ccc(C(=O)NCCN2CCCC2)cc1)Nc1ccc(-c2nc(N3CCOCC3)nc(N3C4CCC3COC4)n2)cc1` [Example 758, 4-[({4-[4-morpholin-4-yl-6-(3-oxa-8-azabicyclo[3.2.1]oct-8-yl)-1,3,5-triazin-2-yl]phenyl}carbamoyl)amino]-N-(2-pyrrolidin-1-ylethyl)benzamide], the IC50 was 0.17 nM at Human mTOR (FLAG-TOR); 14 nM in test [1]; 16 nM on PI3K-γ; 3 nM in test [2] (72 h); 2 nM at PI3K-α.
Turning to `O=C(Nc1ccc(C(=O)NCCN2CCCCC2)cc1)Nc1ccc(-c2nc(N3CCOCC3)nc(N3C4CCC3COC4)n2)cc1` [Example 759, 4-[({4-[4-morpholin-4-yl-6-(3-oxa-8-azabicyclo[3.2.1]oct-8-yl)-1,3,5-triazin-2-yl]phenyl}carbamoyl)amino]-N-(2-piperidin-1-ylethyl)benzamide], the IC50 is 0.16 nM at Human mTOR (FLAG-TOR); 10 nM in test [1]; 38 nM on PI3K-γ; 1 nM in test [2] (72 h); 2 nM on PI3K-α.
Regarding `O=C(Nc1ccc(C(=O)N2CCC(N3CCCC3)CC2)cc1)Nc1ccc(-c2nc(N3CCOCC3)nc(N3C4CCC3COC4)n2)cc1` [Example 761, 1-{4-[4-morpholin-4-yl-6-(3-oxa-8-azabicyclo[3.2.1]oct-8-yl)-1,3,5-triazin-2-yl]phenyl}-3-{4-[(4-pyrrolidin-1-ylpiperidin-1-yl)carbonyl]phenyl}urea], the IC50 is 0.12 nM on Human mTOR (FLAG-TOR); 4 nM in test [1]; 19 nM on PI3K-γ; less than 3 nM in test [2] (MDA-MB-361, 72 h); 2 nM on PI3K-α.
As to `O=C(Nc1ccc(C(=O)N2CCSCC2)cc1)Nc1ccc(-c2nc(N3CCOCC3)nc(N3C4CCC3COC4)n2)cc1` [Example 762, 1-{4-[4-morpholin-4-yl-6-(3-oxa-8-azabicyclo[3.2.1]oct-8-yl)-1,3,5-triazin-2-yl]phenyl}-3-[4-(thiomorpholin-4-ylcarbonyl)phenyl]urea], the half-inhibitory concentration (IC50) is 0.428 nM at Human mTOR (FLAG-TOR); 7 nM in test [1]; 19.7 nM at PI3K-γ; 8 nM in test [2] (MDA-MB-361, 72 h); 2.7 nM on PI3K-α.
Consider `O=C(Nc1ccc(C(=O)N2CCOCC2)cc1)Nc1ccc(-c2nc(N3CCOCC3)nc(N3C4CCC3COC4)n2)cc1` [Example 763, 1-[4-(morpholin-4-ylcarbonyl)phenyl]-3-{4-[4-morpholin-4-yl-6-(3-oxa-8-azabicyclo[3.2.1]oct-8-yl)-1,3,5-triazin-2-yl]phenyl}urea], for which the IC50 at Human mTOR (FLAG-TOR) is 0.445 nM; in test [1], 7 nM; at PI3K-γ, 24 nM; in test [2] (MDA-MB-361, 72 h), 4 nM; at PI3K-α it was 3 nM.
`O=C(Nc1ccc(C(=O)O)cc1)Nc1ccc(-c2nc(N3CCOCC3)nc(N3C4CCC3COC4)n2)cc1` [Example 764, 4-[({4-[4-morpholin-4-yl-6-(3-oxa-8-azabicyclo[3.2.1]oct-8-yl)-1,3,5-triazin-2-yl]phenyl}carbamoyl)amino]benzoic acid]: the IC50 was 0.21 nM at Human mTOR (FLAG-TOR); 678 nM in test [1]; 67.5 nM on PI3K-γ; 628 nM in test [2] (MDA-MB-361, 72 h); 8.5 nM at PI3K-α.
As to `O=C(Nc1ccncc1)Nc1ccc(-c2nc(N3CCOCC3)nc(N3C4COCC3COC4)n2)cc1` [Example 765, 1-{4-[4-(3,7-dioxa-9-azabicyclo[3.3.1]non-9-yl)-6-morpholin-4-yl-1,3,5-triazin-2-yl]phenyl}-3-pyridin-4-ylurea], the IC50 on Human mTOR (FLAG-TOR) amounted to 0.195 nM; in test [1], 27 nM; at PI3K-γ, 78.5 nM; in test [2] (72 h), 21 nM; at PI3K-α it was 8.5 nM.
In the case of `CN1CCN(c2ccc(NC(=O)Nc3ccc(-c4nc(N5CCOCC5)nc(N5C6CCC5COC6)n4)cc3)cn2)CC1` [Example 766, 1-[6-(4-methylpiperazin-1-yl)pyridin-3-yl]-3-{4-[4-morpholin-4-yl-6-(3-oxa-8-azabicyclo[3.2.1]oct-8-yl)-1,3,5-triazin-2-yl]phenyl}urea], the IC50 at Human mTOR (FLAG-TOR) was found to be 1.31 nM; in test [1], 50 nM; at PI3K-γ, 85.5 nM; in test [2] (72 h), 26 nM; at PI3K-α, 24 nM.
On to `CN(C)C1CCN(C(=O)c2ccc(NC(=O)Nc3ccc(-c4nc(N5CCOCC5)nc(N5C6COCC5COC6)n4)cc3)cc2)CC1` [Example 767, 1-(4-{[4-(dimethylamino)piperidin-1-yl]carbonyl}phenyl)-3-{4-[4-(3,7-dioxa-9-azabicyclo[3.3.1]non-9-yl)-6-morpholin-4-yl-1,3,5-triazin-2-yl]phenyl}urea], for which the IC50 at Human mTOR (FLAG-TOR) is 0.2 nM; in test [1] it was 13 nM; on PI3K-γ it was 17 nM; in test [2] (MDA-MB-361, 72 h), 5 nM; at PI3K-α, 2.1 nM.
For `CN(C)CCN(C)C(=O)c1ccc(NC(=O)Nc2ccc(-c3nc(N4CCOCC4)nc(N4C5COCC4COC5)n3)cc2)cc1` [Example 768, N-[2-(dimethylamino)ethyl]-4-[({4-[4-(3,7-dioxa-9-azabicyclo[3.3.1]non-9-yl)-6-morpholin-4-yl-1,3,5-triazin-2-yl]phenyl}carbamoyl)amino]-N-methylbenzamide], the IC50 at Human mTOR (FLAG-TOR) came out at 0.115 nM; in test [1], 8 nM; on PI3K-γ it was 18.5 nM; in test [2] (72 h), 7 nM; at PI3K-α, 1.2 nM.
For the compound `CN1CCN(C(=O)c2ccc(NC(=O)Nc3ccc(-c4nc(N5CCOCC5)nc(N5C6COCC5COC6)n4)cc3)cc2)CC1` [Example 769, 1-{4-[4-(3,7-dioxa-9-azabicyclo[3.3.1]non-9-yl)-6-morpholin-4-yl-1,3,5-triazin-2-yl]phenyl}-3-{4-[(4-methylpiperazin-1-yl)carbonyl]phenyl}urea], the IC50 was 0.23 nM on Human mTOR (FLAG-TOR); 14 nM in test [1]; 17.5 nM on PI3K-γ; 6 nM in test [2] (MDA-MB-361, 72 h); 2.1 nM at PI3K-α.
With `COC(=O)c1ccc(NC(=O)Nc2ccc(-c3nc(N4CCOCC4)nc(N4C5COCC4COC5)n3)cc2)cc1` [Example 770, methyl 4-[({4-[4-(3,7-dioxa-9-azabicyclo[3.3.1]non-9-yl)-6-morpholin-4-yl-1,3,5-triazin-2-yl]phenyl}carbamoyl)amino]benzoate], the IC50 on Human mTOR (FLAG-TOR) was 0.27 nM; in test [1] it was 25 nM; at PI3K-γ, 99 nM; in test [2] (72 h) it was 40 nM; at PI3K-α it was 30.5 nM.
`O=C(Nc1ccc(C(=O)O)cc1)Nc1ccc(-c2nc(N3CCOCC3)nc(N3C4COCC3COC4)n2)cc1` [Example 771, 4-[({4-[4-(3,7-dioxa-9-azabicyclo[3.3.1]non-9-yl)-6-morpholin-4-yl-1,3,5-triazin-2-yl]phenyl}carbamoyl)amino]benzoic acid]: the IC50 is 0.215 nM at Human mTOR (FLAG-TOR); greater than 1000 nM in test [1]; 66 nM at PI3K-γ; greater than 1000 nM in test [2] (72 h); 19.5 nM on PI3K-α.
With `O=C(Nc1ccc(C(=O)N2CCNCC2)cc1)Nc1ccc(-c2nc(N3CCOCC3)nc(N3C4COCC3COC4)n2)cc1` [Example 772, 1-{4-[4-(3,7-dioxa-9-azabicyclo[3.3.1]non-9-yl)-6-morpholin-4-yl-1,3,5-triazin-2-yl]phenyl}-3-[4-(piperazin-1-ylcarbonyl)phenyl]urea], the IC50 at Human mTOR (FLAG-TOR) is 0.29 nM; in test [1], 15 nM; at PI3K-γ it was 9.5 nM; in test [2] (MDA-MB-361, 72 h) it was 5 nM; at PI3K-α, 0.8 nM.
The corresponding values for `CC(C)N1CCN(C(=O)c2ccc(NC(=O)Nc3ccc(-c4nc(N5CCOCC5)nc(N5C6COCC5COC6)n4)cc3)cc2)CC1` [Example 773, 1-{4-[4-(3,7-dioxa-9-azabicyclo[3.3.1]non-9-yl)-6-morpholin-4-yl-1,3,5-triazin-2-yl]phenyl}-3-{4-[(4-isopropylpiperazin-1-yl)carbonyl]phenyl}urea] are 0.305 nM, 6 nM, 36.5 nM, 4 nM and 3 nM.
For `O=C(Nc1ccc(C(=O)NCCN2CCCC2)cc1)Nc1ccc(-c2nc(N3CCOCC3)nc(N3C4COCC3COC4)n2)cc1` [Example 774, 4-[({4-[4-(3,7-dioxa-9-azabicyclo[3.3.1]non-9-yl)-6-morpholin-4-yl-1,3,5-triazin-2-yl]phenyl}carbamoyl)amino]-N-(2-pyrrolidin-1-ylethyl)benzamide], the IC50 on Human mTOR (FLAG-TOR) was found to be 0.23 nM; in test [1] it was 19 nM; on PI3K-γ, 41.5 nM; in test [2] (72 h), 14 nM; at PI3K-α, 2 nM.

As a reminder, the IC50 is the concentration that gives 50% inhibition.
